Earlier results, collected in patent publication US20230106592A1, “METHOD FOR TREATING CANCER USING A COMBINATION OF DNA DAMAGING AGENTS AND ATR INHIBITORS” (Vertex Pharmaceuticals Incorporated, priority 2015, published 2023).
Where two headings read alike, the source gives them in different places.

Tested on: ovarian cancer
Details: cited from earlier work

Structure (SMILES)	Outcome of prior line of treatment (monotherapy, refractory high grade serous ovarian cancer subject)	Outcome of prior line of treatment (ovarian cancer subject with BRCA2 germline mutation)
Cn1ncnc1[C@H]1c2n[nH]c(=O)c3cc(F)cc(c23)N[C@@H]1c1ccc(F)cc1 [Talazoparib]	progressive disease after 10 months	
O=C(c1cc(Cc2n[nH]c(=O)c3ccccc23)ccc1F)N1CCN(C(=O)C2CC2)CC1 [olaparib]		no response
